Source: PMC12133982, “Predominant T-cell epitopes of SARS-CoV-2 restricted by multiple prevalent HLA-B and HLA-C allotypes in Northeast Asia” (Frontiers in Immunology, 2025)
Peptide text beside a SMILES is read from it.

Tests used:
[1] = biological target: HLA-C0102 (Homo sapiens, UniProt P10321, A176E/A330V/A35S/A97T/C350S/D114A/D33F/L171W/L180R/L218V/M285V/M309V/M331V/P208H/Q277E/Q291P/R121W/R243W/R30K/S123C/S140Y/S297R/T329A/T363A/V272M/V319A); assay: Competitive peptide binding assay, CIR-C0102; conditions: HMy2.CIR-C0102 cells, reference Cy5-[…], class from inhibition at 5 and 15 μM, flow cytometry MFI; read-out: Binding affinity with HLA-C0102
Procedure: (§1) Then, competitive peptide binding assays were performed.

[2] = biological target: HLA-C0602 (Homo sapiens, UniProt P10321, A176E/A330V/C350S/L171W/L180W/L218V/M285V/M309V/M331V/N104K/P208H/Q277E/Q291P/R121W/S101N/S123Y/S297R/T329A/T363A/V319A/V328M); assay: Competitive peptide binding assay, CIR-C0602
[3] = biological target: HLA-C0702 (Homo sapiens, UniProt P10321); assay: Competitive peptide binding assay, CIR-C0702
[4] = biological target: HLA-C0401 (Homo sapiens, UniProt P10321, A176E/A330V/A35S/A73E/C25G/C350S/D138N/D33S/E299K/L171W/L180R/L218V/M285V/M309V/M331V/N104K/P208H/Q277E/Q291P/R243W/R38W/S101N/S123F/S140F/S297R/S48A/T329A/T363A/V319A/V327M); assay: Competitive peptide binding assay, CIR-C0401; conditions: HMy2.CIR-C0401 cells, reference Cy5-[…], class from inhibition at 5 and 15 μM, flow cytometry MFI; read-out: Binding affinity with HLA-C0401
Procedure: as §1

[5] = biological target: HLA-C0701 (Homo sapiens, UniProt P10321, K90N/S123Y); assay: Competitive peptide binding assay, CIR-C0701; conditions: HMy2.CIR-C0701 cells, reference Cy5-[…], class from inhibition at 5 and 15 μM, flow cytometry MFI; read-out: Binding affinity with HLA-C 0701
Procedure: as §1

[6] = biological target: HLA-C0303 (Homo sapiens, UniProt P10321, A176E/A330V/A97T/C25G/C350S/D114A/D33Y/E197K/G115R/L119I/L127V/L171W/L218V/M285V/M309V/M331V/P208H/Q277E/Q291P/R243W/R45H/S123Y/S140Y/S297R/S48A/T118I/T187L/T329A/T363A/V319A); assay: Competitive peptide binding assay, CIR-C0303; conditions: HMy2.CIR-C0303 cells, reference Cy5-[…], class from inhibition at 5 and 15 μM, flow cytometry MFI; read-out: Binding affinity with HLA-C0303
Procedure: as §1

[7] = biological target: HLA-C0304 (Homo sapiens, UniProt P10321, A176E/A330V/A97T/C25G/C350S/D114A/D33Y/E197K/L119I/L127V/L171W/L218V/M285V/M309V/M331V/P208H/Q277E/Q291P/R243W/R45H/S123Y/S140Y/S297R/S48A/T118I/T187L/T329A/T363A/V319A); assay: Competitive peptide binding assay, CIR-C0304; conditions: HMy2.CIR-C0304 cells, reference Cy5-[…], class from inhibition at 5 and 15 μM, flow cytometry MFI; read-out: Binding affinity with HLA-C0304
Procedure: as §1

[8] = biological target: HLA-C0302 (Homo sapiens, UniProt P10321, A176E/A330V/A97T/C25G/C350S/D114A/D33Y/E197K/L127V/L171W/L218V/M285V/M309V/M331V/P208H/Q277E/Q291P/R243W/R45H/S123Y/S297R/S48A/T118I/T187L/T329A/T363A/V319A); assay: Competitive peptide binding assay, CIR-C0302; conditions: HMy2.CIR-C0302 cells, reference Cy5-[…], class from inhibition at 5 and 15 μM, flow cytometry MFI; read-out: Binding affinity with HLA-C0302
Procedure: as §1

[9] = biological target: HLA-C0801 (Homo sapiens, UniProt P10321, A176T/A330V/A97T/C350S/D114A/D138N/D33Y/E201K/E299G/L171W/L218V/M285V/M309V/M331V/P208H/Q277E/Q291P/R59Q/S123Y/S140F/S297R/S48A/T329A/T363A/V319A/V328M); assay: Competitive peptide binding assay, CIR-C0801; conditions: HMy2.CIR-C0801 cells, reference Cy5-[…], class from inhibition at 5 and 15 μM, flow cytometry MFI; read-out: Binding affinity with HLA-C0801
Procedure: as §1

[10] = biological target: HLA-B4801 (Homo sapiens, UniProt P01889, A269T/A93T/A95T/D138N/D98Y/E176V/N87E/Q94N/R180L/T167S/W171L/Y91S); assay: Competitive peptide binding assay, CIR-B4801; conditions: HMy2.CIR-B4801 cells, reference Cy5-[…], class from inhibition at 5 and 15 μM, flow cytometry MFI; read-out: Binding affinity with HLA-B4801
Procedure: as §1

[11] = biological target: HLA-B3501 (Homo sapiens, UniProt P01889, A329T/A93T/A95T/C349S/D201E/D98Y/E176V/E187L/E204Q/E69T/I218V/K202T/L119I/Q94N/R155S/R180L/S121R/S35A/S48A/T118I/V127L/V306I/V36M/Y140S/Y91F); assay: Competitive peptide binding assay, CIR-B3501; conditions: HMy2.CIR-B3501 cells, reference Cy5-[…], class from inhibition at 5 and 15 μM, flow cytometry MFI; read-out: Binding affinity with HLA-B3501
Procedure: as §1

[12] = biological target: HLA-B1302 (Homo sapiens, UniProt P01889, A65T/A93T/A95T/D138N/D201E/D98Y/E176V/E204Q/E69M/E70A/G107R/K202T/L105A/L119W/N104T/N87E/Q94N/R106L/R155S/R169L/R180L/S101N/S121T/S35A/S48T/V127L/V36M/Y140L/Y91S); assay: Competitive peptide binding assay, CIR-B1302; conditions: HMy2.CIR-B1302 cells, reference Cy5-MMWYWGPSL, class from inhibition at 5 and 15 μM, flow cytometry MFI; read-out: Binding affinity with HLA-B1302
Procedure: as §1

[13] = biological target: HLA-B1501 (Homo sapiens, UniProt P01889, A329T/A93T/A95T/C349S/D201E/D98Y/E187L/E204Q/E69M/E70A/K202T/N87E/Q94N/R155S/R180W/S121R/S35A/S48A/V306I/V36M/Y140S/Y91S); assay: Competitive peptide binding assay, CIR-B1501; conditions: HMy2.CIR-B1501 cells, reference Cy5-[…], class from inhibition at 5 and 15 μM, flow cytometry MFI; read-out: Binding affinity with HLA-B1501
Procedure: as §1

[14] = biological target: HLA-B5801 (Homo sapiens, UniProt P01889, A329T/C349S/D201E/D98Y/E176V/E187L/E204Q/E69T/G107R/I218V/I90N/K202T/L105A/L119I/N104I/N87E/Q89R/Q94S/R106L/R155S/R180L/R86G/S101N/S121R/S35A/S48A/T118I/V127L/V306I/V36M/Y140S/Y91M); assay: Competitive peptide binding assay, CIR-B5801; conditions: HMy2.CIR-B5801 cells, reference Cy5-[…], class from inhibition at 5 and 15 μM, flow cytometry MFI; read-out: Binding affinity with HLA-B5801
Procedure: as §1

[15] = biological target: HLA-B5101 (Homo sapiens, UniProt P01889, A329T/A93T/A95T/C349S/D138N/D201E/D98Y/E187L/E204Q/E69T/G107R/I218V/K202T/L105A/L119W/N104I/Q94N/R106L/R155S/R180L/S101N/S121T/S35A/S48A/V306I/V36M/Y195H/Y91F); assay: Competitive peptide binding assay, CIR-B5101; conditions: HMy2.CIR-B5101 cells, reference Cy5-[…], class from inhibition at 5 and 15 μM, flow cytometry MFI; read-out: Binding affinity with HLA-B5101
Procedure: as §1

[16] = biological target: HLA-B1502 (Homo sapiens, UniProt P01889, A329T/A93T/A95T/C349S/D201E/D98Y/E187L/E204Q/E69M/E70A/H137Y/K202T/L119I/Q94N/R155S/R180L/S121R/S35A/S48A/T118I/V306I/V36M/Y140S/Y91S); assay: Competitive peptide binding assay, CIR-B1502; conditions: HMy2.CIR-B1502 cells, reference Cy5-[…], class from inhibition at 5 and 15 μM, flow cytometry MFI; read-out: Binding affinity with HLA-B1502
Procedure: as §1

[17] = biological target: HLA-B4601 (Homo sapiens, UniProt P01889, A329T/A93R/C349S/D201E/E100V/E187L/E204Q/E69M/E70A/I90K/K202T/N87E/R155S/R180W/S121R/S35A/S48A/V306I/V36M/Y140S); assay: Competitive peptide binding assay, CIR-B4601; conditions: HMy2.CIR-B4601 cells, reference Cy5-[…], class from inhibition at 5 and 15 μM, flow cytometry MFI; read-out: Binding affinity with HLA-B4601
Procedure: as §1

[18] = biological target: HLA-C1202 (Homo sapiens, UniProt P10321, A176E/A330V/C350S/D114A/D33Y/L171W/L180W/L218V/M285V/M309V/M331V/P208H/Q277E/Q291P/S123Y/S297R/S48A/T329A/T363A/V319A/V328M); assay: Competitive peptide binding assay, CIR-C1202; conditions: HMy2.CIR-C1202 cells, reference Cy5-[…], class from inhibition at 5 and 15 μM, flow cytometry MFI; read-out: Binding affinity with HLA-C1202
Procedure: as §1

Structure (SMILES) | IC50 [1] [µM] | IC50 [2] [µM] | IC50 [3] [µM] | IC50 [4] [µM] | IC50 [5] [µM] | IC50 [6] [µM] | IC50 [7] [µM] | IC50 [8] [µM] | IC50 [9] [µM] | IC50 [10] [µM] | IC50 [11] [µM] | IC50 [12] [µM] | IC50 [13] [µM] | IC50 [14] [µM] | IC50 [15] [µM] | IC50 [16] [µM] | IC50 [17] [µM] | IC50 [18] [µM]
C[C@H](NC(=O)[C@H](Cc1ccc(O)cc1)NC(=O)[C@H](C)NC(=O)[C@@H](N)Cc1ccccc1)C(=O)N[C@@H](CC(N)=O)C(=O)N[C@@H](CCCNC(=N)N)C(=O)N[C@@H](CC(N)=O)C(=O)N[C@@H](CCCNC(=N)N)C(=O)N[C@@H](Cc1ccccc1)C(=O)O [Epitope M43] (H-FAYANRNRF-OH; N-terminus and C-terminus assumed) | > 15 | 5 to 15 | 5 to 15 | > 15 | < 5 | – | – | – | – | – | – | – | – | – | – | – | – | –
CC[C@H](C)[C@H](NC(=O)[C@H](C)NC(=O)[C@H](C)NC(=O)[C@H](CC(N)=O)NC(=O)CNC(=O)[C@H](CC(=O)O)NC(=O)[C@H](CCC(N)=O)NC(=O)[C@H](C)NC(=O)[C@@H](N)Cc1ccccc1)C(=O)O [Epitope M22] (H-FAQDGNAAI-OH; N-terminus and C-terminus assumed) | > 15 | > 15 | – | – | > 15 | > 15 | 5 to 15 | < 5 | < 5 | – | – | – | – | – | – | – | – | –
CC(C)C[C@H](NC(=O)[C@H](CC(=O)O)NC(=O)[C@@H](NC(=O)[C@H](CC(=O)O)NC(=O)[C@@H](NC(=O)[C@H](Cc1c[nH]cn1)NC(=O)[C@H](CO)NC(=O)[C@H](CCC(=O)O)NC(=O)[C@H](C)N)C(C)C)[C@@H](C)O)C(=O)O [Epitope Y198] (H-AESHVDTDL-OH; N-terminus and C-terminus assumed) | – | – | – | – | – | – | – | – | – | > 15 | > 15 | 5 to 15 | > 15 | > 15 | > 15 | > 15 | > 15 | –
CC(C)C[C@H](NC(=O)[C@H](Cc1ccccc1)NC(=O)[C@@H](NC(=O)[C@@H](N)C(C)C)C(C)C)C(=O)N[C@@H](Cc1c[nH]cn1)C(=O)N[C@H](C(=O)N[C@H](C(=O)N[C@@H](Cc1ccc(O)cc1)C(=O)N[C@H](C(=O)O)C(C)C)[C@@H](C)O)C(C)C [Epitope M131] (H-VVFLHVTYV-OH; N-terminus and C-terminus assumed) | 5 to 15 | – | > 15 | – | – | – | 5 to 15 | > 15 | – | – | – | – | – | – | – | – | – | > 15
CSCC[C@H](NC(=O)[C@H](CO)NC(=O)[C@H](CCCNC(=N)N)NC(=O)[C@@H](NC(=O)[C@H](CCCNC(=N)N)NC(=O)[C@H](C)NC(=O)[C@@H](N)Cc1ccccc1)[C@@H](C)O)C(=O)N[C@@H](Cc1c[nH]c2ccccc12)C(=O)N[C@@H](CO)C(=O)N[C@@H](Cc1ccccc1)C(=O)O [Epitope M71] (H-FARTRSMWSF-OH; N-terminus and C-terminus assumed) | – | > 15 | 5 to 15 | > 15 | 5 to 15 | – | – | < 5 | > 15 | – | – | – | – | – | – | – | – | –
CC[C@H](C)[C@H](N)C(=O)N[C@@H](C)C(=O)N[C@@H](CCSC)C(=O)N[C@@H](C)C(=O)N[C@@H](CS)C(=O)N[C@@H](CC(C)C)C(=O)N[C@H](C(=O)NCC(=O)N[C@@H](CC(C)C)C(=O)O)C(C)C [Epitope M44] (H-IAMACLVGL-OH; N-terminus and C-terminus assumed) | < 5 | > 15 | > 15 | – | > 15 | > 15 | > 15 | < 5 | > 15 | – | – | – | – | – | – | – | – | –
